System: 242566-281-R-J2-PDC complex spheroid viability
Assay: Anticancer human tumor 242566-281-R-J2-PDC patient-derived pancreatic carcinoma cell line growth inhibition [RAS]
Conditions: for viability, T/C: stronger effect = lower value
Procedure, shortened: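 Agents were tested in combination matrices in half-log decrements from a top concentration at or near clinical Cmax (10 microM if undetermined). Targets were multi-cell spheroids of tumour lines plus HUVEC and MSC stromal cells.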
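Also: spheroids exposed to compound for 7 days before readout.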
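For viability, T/C in this document: 100% = DMSO vehicle control wells.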

Structure (SMILES): C=CC(=O)N1CCN(c2nc(OCC3CCCN3C)nc3c(F)c(-c4nc(N)cc(C)c4C(F)(F)F)c(Cl)cc23)C(C)C1 (stereo not given) + C#Cc1c(F)ccc2cc(O)cc(-c3ncc4c(N5CC6CCC(C5)N6)nc(OCC56CCCN5CC(F)C6)nc4c3F)c12
- IC50 (curve of first compound, second compound 0.0316 µM): > 1 µM
- IC50 (curve of first compound, second compound 0.1 µM): > 1 µM
- IC50 (curve of first compound, second compound 0.316 µM): > 1 µM
- IC50 (curve of first compound, second compound 1 µM): > 1 µM
- IC50 (curve of first compound, second compound 3.16 µM): 0.0299 µM
- IC50 (curve of first compound, second compound 10 µM): > 1 µM
- viability, T/C (second compound 0.0316 µM, first compound 0.00316 µM): 95.7%
- viability, T/C (second compound 0.0316 µM, first compound 0.01 µM): 113%
- viability, T/C (second compound 0.0316 µM, first compound 0.0316 µM): 95.9%
- viability, T/C (second compound 0.0316 µM, first compound 0.1 µM): 66.7%
- viability, T/C (second compound 0.0316 µM, first compound 0.316 µM): 71.1%
- viability, T/C (second compound 0.0316 µM, first compound 1 µM): 91.7%
- viability, T/C (second compound 0.1 µM, first compound 0.00316 µM): 83.9%
- viability, T/C (second compound 0.1 µM, first compound 0.01 µM): 90.8%
- viability, T/C (second compound 0.1 µM, first compound 0.0316 µM): 79.9%
- viability, T/C (second compound 0.1 µM, first compound 0.1 µM): 57.2%
- viability, T/C (second compound 0.1 µM, first compound 0.316 µM): 75.3%
- viability, T/C (second compound 0.1 µM, first compound 1 µM): 76.5%
- viability, T/C (second compound 0.316 µM, first compound 0.00316 µM): 80%
- viability, T/C (second compound 0.316 µM, first compound 0.01 µM): 74.6%
- viability, T/C (second compound 0.316 µM, first compound 0.0316 µM): 60.1%
- viability, T/C (second compound 0.316 µM, first compound 0.1 µM): 62.3%
- viability, T/C (second compound 0.316 µM, first compound 0.316 µM): 56.5%
- viability, T/C (second compound 0.316 µM, first compound 1 µM): 63.3%
- viability, T/C (second compound 1 µM, first compound 0.00316 µM): 60.6%
- viability, T/C (second compound 1 µM, first compound 0.01 µM): 61.9%
- viability, T/C (second compound 1 µM, first compound 0.0316 µM): 48.4%
- viability, T/C (second compound 1 µM, first compound 0.1 µM): 50.7%
- viability, T/C (second compound 1 µM, first compound 0.316 µM): 56.1%
- viability, T/C (second compound 1 µM, first compound 1 µM): 61%
- viability, T/C (second compound 3.16 µM, first compound 0.00316 µM): 56.4%
- viability, T/C (second compound 3.16 µM, first compound 0.01 µM): 56.8%
- viability, T/C (second compound 3.16 µM, first compound 0.0316 µM): 40.5%
- viability, T/C (second compound 3.16 µM, first compound 0.1 µM): 51.1%
- viability, T/C (second compound 3.16 µM, first compound 0.316 µM): 52.5%
- viability, T/C (second compound 3.16 µM, first compound 1 µM): 54.5%
- viability, T/C (second compound 10 µM, first compound 0.00316 µM): 51.2%
- viability, T/C (second compound 10 µM, first compound 0.01 µM): 53.2%
- viability, T/C (second compound 10 µM, first compound 0.0316 µM): 46.8%
- viability, T/C (second compound 10 µM, first compound 0.1 µM): 48.6%
- viability, T/C (second compound 10 µM, first compound 0.316 µM): 57.3%
- viability, T/C (second compound 10 µM, first compound 1 µM): 53.4%

Structure (SMILES): CC(C)NCC(C(=O)N1CCN(c2ncnc3c2C(C)CC3O)CC1)c1ccc(Cl)cc1 (stereo not given) + CCn1c(-c2cc(N3CCN(C)CC3)cnc2C(C)OC)c2c3cc(ccc31)-c1csc(n1)CC(NC(=O)C1CC1C)C(=O)N1CCCC(N1)C(=O)OCC(C)(C)C2
- IC50 (curve of first compound, second compound 0.000949 µM): 7.98 µM
- IC50 (curve of first compound, second compound 0.003 µM): 3.66 µM
- IC50 (curve of first compound, second compound 0.00949 µM): < 0.0316 µM
- IC50 (curve of first compound, second compound 0.03 µM): < 0.0316 µM
- IC50 (curve of first compound, second compound 0.0949 µM): < 0.0316 µM
- IC50 (curve of first compound, second compound 0.3 µM): < 0.0316 µM
- viability, T/C (second compound 0.000949 µM, first compound 0.0316 µM): 92.1%
- viability, T/C (second compound 0.000949 µM, first compound 0.1 µM): 92.8%
- viability, T/C (second compound 0.000949 µM, first compound 0.316 µM): 74.8%
- viability, T/C (second compound 0.000949 µM, first compound 1 µM): 95.2%
- viability, T/C (second compound 0.000949 µM, first compound 3.16 µM): 75.2%
- viability, T/C (second compound 0.000949 µM, first compound 10 µM): 43.9%
- viability, T/C (second compound 0.003 µM, first compound 0.0316 µM): 78%
- viability, T/C (second compound 0.003 µM, first compound 0.1 µM): 70.3%
- viability, T/C (second compound 0.003 µM, first compound 0.316 µM): 57.6%
- viability, T/C (second compound 0.003 µM, first compound 1 µM): 64.8%
- viability, T/C (second compound 0.003 µM, first compound 3.16 µM): 56.9%
- viability, T/C (second compound 0.003 µM, first compound 10 µM): 28.4%
- viability, T/C (second compound 0.00949 µM, first compound 0.0316 µM): 49.6%
- viability, T/C (second compound 0.00949 µM, first compound 0.1 µM): 42.6%
- viability, T/C (second compound 0.00949 µM, first compound 0.316 µM): 48.6%
- viability, T/C (second compound 0.00949 µM, first compound 1 µM): 41.5%
- viability, T/C (second compound 0.00949 µM, first compound 3.16 µM): 26%
- viability, T/C (second compound 0.00949 µM, first compound 10 µM): 17.9%
- viability, T/C (second compound 0.03 µM, first compound 0.0316 µM): 30.9%
- viability, T/C (second compound 0.03 µM, first compound 0.1 µM): 31.8%
- viability, T/C (second compound 0.03 µM, first compound 0.316 µM): 28.5%
- viability, T/C (second compound 0.03 µM, first compound 1 µM): 27.1%
- viability, T/C (second compound 0.03 µM, first compound 3.16 µM): 12%
- viability, T/C (second compound 0.03 µM, first compound 10 µM): 9.97%
- viability, T/C (second compound 0.0949 µM, first compound 0.0316 µM): 23.8%
- viability, T/C (second compound 0.0949 µM, first compound 0.1 µM): 22.7%
- viability, T/C (second compound 0.0949 µM, first compound 0.316 µM): 22.1%
- viability, T/C (second compound 0.0949 µM, first compound 1 µM): 20.8%
- viability, T/C (second compound 0.0949 µM, first compound 3.16 µM): 7.71%
- viability, T/C (second compound 0.0949 µM, first compound 10 µM): 5.5%
- viability, T/C (second compound 0.3 µM, first compound 0.0316 µM): 19.9%
- viability, T/C (second compound 0.3 µM, first compound 0.1 µM): 18%
- viability, T/C (second compound 0.3 µM, first compound 0.316 µM): 16.7%
- viability, T/C (second compound 0.3 µM, first compound 1 µM): 13.1%
- viability, T/C (second compound 0.3 µM, first compound 3.16 µM): 6.93%
- viability, T/C (second compound 0.3 µM, first compound 10 µM): 3.76%

Structure (SMILES): C[C@@H](NC(=O)c1ncnc(N)c1Cl)c1ncc(C(=O)Nc2cc(C(F)(F)F)c(Cl)cn2)s1
- viability, T/C (compound 0.0316 µM): 116% [middle of 4 runs]
- viability, T/C (compound 0.1 µM): 114% [middle of 4 runs]
- viability, T/C (compound 0.316 µM): 110% [middle of 4 runs]
- viability, T/C (compound 1 µM): 118% [middle of 4 runs]
- viability, T/C (compound 3.16 µM): 106% [middle of 4 runs]
- IC50 (curve of compound): > 10 µM
